Values quoted from earlier work in patent publication US8383585B2, “Biomarkers for cardiodiabetes” (IKFE Institut fur Klinische Forschung und Entwicklung GmbH, priority 2008, dated 2013).

Key:
Parameters in all cases: key: ↑: An up arrow indicates an increase in biomarker levels; ↓: a down arrow indicates a decrease; ◯: “O” indicates substantially no change
Conditions in all cases: effect on biomarker level in a subject
hsCRP = test system: hsCRP
adiponectin = test system: adiponectin
intact proinsulin = test system: intact proinsulin

Row | Compound | hsCRP (hsCRP) | adiponectin (adiponectin) | intact proinsulin (intact proinsulin)
1 | CN(C)C(=N)N=C(N)N [metformin] | ◯ | ↑ | ↓
2 | insulin | ◯ | ◯ | ↓
